One series has as its system influenza A2. Format: in vivo, NMRI mice. The following applies: twice daily over 2.5 days; for Number of surviving animals: groups of 5 mice.
The subject of a further series is Herpes simplex Type 1. Nature of the series: Herpes simplex Type 1 infection of NMRI mice, survival. Format: in vivo. The settings on record: twice daily over 2.5 days; for Surviving animals: groups of 5 mice. The protocol: Pathogen-free NMRI mice having a weight of about 15 g were infected intraperitoneally with Herpes simplex Type 1 and then treated intraperitoneally, orally or subcutaneously with the compounds mentioned in Table 1. The treatment was carried out twice daily over the course of 2.5 days, starting after infection. The result of treatment was determined on the basis of the course of the disease and the survival rate compared to the untreated infection controls. The controls received a water-solublemethylhydroxyethylcellulose (viscosity […], administered in 2% strength solution) instead of the compounds to be tested. The experiments were carried out using groups of 5 mice each per preparation.
The chemotherapeutic action of the compound A can be seen from Table 1.

The nature of another series: in vitro. The settings on record: hela and vero cells.
Series [1] concerns myxoviruses (influenza A2). The series can be described thus: microbe, parasite or virus in culture. The class given is cell-based, influenza A2 virus in Hela and Vero cells. The following applies: read-out: MIC (minimum inhibitory concentration).
Another series relates to viruses. The settings on record: literature; cited from earlier work.
The conditions of series [2]: literature; cited from earlier work.

Several values for one entry are separate records, joined by “and”; a condition that tells them apart may be missing. Identical values can stand only once. Counter-ions that a name gives are not always drawn. Like-named read-outs stand apart in the source and are kept apart here.

Consider `CCOP(=O)(Cc1ccccc1C1O[C@H](c2ccccc2)[C@H](C)N1C)OCC` (single isomer, unassigned) [F, Diethyl 2-(3,4-dimethyl-5-phenyloxazolidin-2-yl)benzylphosphonate], for which the Average survival time in the series on influenza A2 (po, 0.25 mg/kg) is listed as 6.5 days; in the series on influenza A2 (po, 2.5 mg/kg) it was 6.5 days; in the series on influenza A2 (po, 25 mg/kg), 7.0 days. The “Number of surviving animals” value was 3 in the series on influenza A2 (po, 0.25 mg/kg); 3 in the series with influenza A2 (po, 2.5 mg/kg); 2 with influenza A2 (po, 25 mg/kg).
Turning to `CCOP(=O)(Cc1ccccc1C=O)OCC` [A, diethyl 2-formylbenzylphosphonate], the Average survival time turned out to be 9.0 days in the series with influenza A2 (po, 2.5 mg/kg); 8.0 days in the series on influenza A2 (po, 3 mg/kg); 7.0 days with influenza A2 (po, 10 mg/kg); 6.3 days in the series on influenza A2 (po, 25 mg/kg); 7.3 days with influenza A2 (po, 30 mg/kg); 6.7 days in the series on influenza A2 (sc, 2.5 mg/kg). Moreover, the Average survival time with influenza A2 (sc, 25 mg/kg) came to 7.0 days; with Herpes simplex Type 1 (ip, 3 mg/kg), 8.0 days; in the series with Herpes simplex Type 1 (ip, 10 mg/kg), 9.0 days; in the series on Herpes simplex Type 1 (ip, 30 mg/kg) it was 8.5 days; with Herpes simplex Type 1 (po, 2.5 mg/kg), 8.0 days; in the series on Herpes simplex Type 1 (po, 250 mg/kg), 8.0 days. Besides, the Average survival time in the series with Herpes simplex Type 1 (sc, 2.5 mg/kg) was 9.0 days; with Herpes simplex Type 1 (sc, 25 mg/kg), 7.2 days; in the series on Herpes simplex Type 1 (sc, 250 mg/kg) it was 8.4 days. Further, the “Number of surviving animals” value in the series with influenza A2 (po, 2.5 mg/kg) stood at 4; in the series on influenza A2 (po, 3 mg/kg), 4; in the series on influenza A2 (po, 10 mg/kg), 4; in the series on influenza A2 (po, 25 mg/kg), 2; in the series on influenza A2 (po, 30 mg/kg), 2; in the series with influenza A2 (sc, 2.5 mg/kg) it was 2. Further, the “Number of surviving animals” value with influenza A2 (sc, 25 mg/kg) was 3. In addition, the Surviving animals was 0 in the series with Herpes simplex Type 1 (ip, 3 mg/kg); 4 in the series on Herpes simplex Type 1 (ip, 10 mg/kg); 3 in the series on Herpes simplex Type 1 (ip, 30 mg/kg); 4 in the series with Herpes simplex Type 1 (po, 2.5 mg/kg); 5 in the series with Herpes simplex Type 1 (po, 25 mg/kg); 4 in the series with Herpes simplex Type 1 (po, 250 mg/kg). For the same compound, the Surviving animals is on record as 2 in the series on Herpes simplex Type 1 (sc, 2.5 mg/kg); 0 in the series with Herpes simplex Type 1 (sc, 25 mg/kg); 0 in the series on Herpes simplex Type 1 (sc, 250 mg/kg).
As to `NC12CC3CC(CC(C3)C1)C2` [Amantadine, reference compound], the Average survival time in the series with influenza A2 (po, 80 mg/kg) amounted to 8.0 days. Besides, the “Number of surviving animals” value in the series on influenza A2 (po, 80 mg/kg, 80 mg/kg) was 5 and 4; with influenza A2 (sc, 80 mg/kg) it was 5.
In the case of `O=Cc1ccccc1CP(=O)(O)O` [B, 2-formylbenzylphosphonic acid di(triethylammonium) salt], the Average survival time was 8.5 days in the series with influenza A2 (po, 1.5 mg/kg); 7.0 days in the series with influenza A2 (po, 150 mg/kg); 8.5 days with influenza A2 (sc, 1.5 mg/kg); 8.0 days in the series with influenza A2 (sc, 15 mg/kg); 7.0 days in the series with Herpes simplex Type 1 (po, 3 mg/kg); 8.3 days in the series with Herpes simplex Type 1 (po, 10 mg/kg). Besides, the Average survival time in the series with Herpes simplex Type 1 (po, 30 mg/kg) amounted to 6.0 days; with Herpes simplex Type 1 (sc, 3 mg/kg), 7.8 days; in the series with Herpes simplex Type 1 (sc, 10 mg/kg), 7.0 days; in the series on Herpes simplex Type 1 (sc, 30 mg/kg) it was 6.5 days. The “Number of surviving animals” value in the series on influenza A2 (po, 1.5 mg/kg) is listed as 3; in the series with influenza A2 (po, 15 mg/kg), 5; in the series with influenza A2 (po, 150 mg/kg), 3; with influenza A2 (sc, 1.5 mg/kg), 1; with influenza A2 (sc, 15 mg/kg), 4. For the same compound, the Surviving animals in the series with Herpes simplex Type 1 (po, 3 mg/kg) was determined as 3; in the series on Herpes simplex Type 1 (po, 10 mg/kg), 2; in the series with Herpes simplex Type 1 (po, 30 mg/kg) it was 3; in the series on Herpes simplex Type 1 (sc, 3 mg/kg), 2; in the series with Herpes simplex Type 1 (sc, 10 mg/kg), 3; in the series on Herpes simplex Type 1 (sc, 30 mg/kg) it was 3. The MNTC in “in vitro” was above 400 µg/mL. The MIC in series [1] is 4.94 µg/mL.
Regarding `CCOP(=O)(O)Cc1ccccc1C=O` [C, monoethyl 2-formylbenzylphosphonate triethylammonium salt], the “Number of surviving animals” value in the series on influenza A2 (po, 0.25 mg/kg) is on record as 5; in the series with influenza A2 (po, 2.5 mg/kg), 2; with influenza A2 (po, 25 mg/kg), 5; with influenza A2 (sc, 0.25 mg/kg) it was 5; in the series on influenza A2 (sc, 2.5 mg/kg), 5; with influenza A2 (sc, 25 mg/kg), 3. The Average survival time in the series on influenza A2 (po, 2.5 mg/kg) stood at 6.0 days; in the series with influenza A2 (sc, 25 mg/kg) it was 7.5 days; in the series with Herpes simplex Type 1 (po, 3 mg/kg) it was 9.0 days; in the series with Herpes simplex Type 1 (po, 10 mg/kg) it was 8.0 days; in the series on Herpes simplex Type 1 (po, 30 mg/kg) it was 8.3 days; in the series on Herpes simplex Type 1 (sc, 3 mg/kg), 8.5 days. Further, the Average survival time is on record as 8.0 days with Herpes simplex Type 1 (sc, 10 mg/kg) and 10.0 days in the series with Herpes simplex Type 1 (sc, 30 mg/kg). Further, the Surviving animals was 4 with Herpes simplex Type 1 (po, 3 mg/kg); 3 with Herpes simplex Type 1 (po, 10 mg/kg); 1 with Herpes simplex Type 1 (po, 30 mg/kg); 1 with Herpes simplex Type 1 (sc, 3 mg/kg); 3 in the series on Herpes simplex Type 1 (sc, 10 mg/kg); 4 with Herpes simplex Type 1 (sc, 30 mg/kg). In addition, in the series “in vitro”, the MNTC was above 400 µg/mL. Also, in series [1], the MIC turned out to be 44.4 µg/mL.
In the case of `CCOP(=O)(Cc1ccccc1C=NNC(N)=S)OCC` [D, Diethyl 2-formylbenzylphosphonate thiosemicarbazone], the Average survival time stood at 8.0 days in the series on influenza A2 (po, 0.25 mg/kg); 7.0 days in the series with influenza A2 (po, 2.5 mg/kg); 7.3 days with influenza A2 (po, 25 mg/kg). Besides, the “Number of surviving animals” value with influenza A2 (po, 0.25 mg/kg) is on record as 4; with influenza A2 (po, 2.5 mg/kg) it was 1; in the series on influenza A2 (po, 25 mg/kg) it was 2.
With `CCOP(=O)(Cc1ccccc1C=NNC(=O)c1cccnc1)OCC` [E, Diethyl 2-formylbenzylphosphonate nicotinic acid hydrazone], the Average survival time is on record as 8.0 days in the series with influenza A2 (po, 0.25 mg/kg); 6.7 days in the series with influenza A2 (po, 2.5 mg/kg); 6.0 days with influenza A2 (po, 25 mg/kg). In addition, the “Number of surviving animals” value with influenza A2 (po, 0.25 mg/kg) is listed as 4; in the series with influenza A2 (po, 2.5 mg/kg), 3; in the series with influenza A2 (po, 25 mg/kg), 3.
As for `O=P(O)(O)CP(=O)(O)O` [MDP, methylenediphosphonic acid], in the series with viruses, the antiviral activity entry is “exhibit antiviral activity”.
`O=C(O)CP(=O)(O)O` [PAA, phosphonoacetic acid]: the antiviral activity result in the series with viruses is given as “exhibit antiviral activity”.
Take `O=C(O)P(=O)(O)O` [PFA, phosphonoformic acid]: the antiviral activity result with viruses is recorded as “wide antiviral spectrum”. The toxic side effects entry in series [2] was “some toxic side effects”.
